We go through two compounds from US5232917A, “Methods, compositions, and compounds for allosteric modulation of the GABA receptor by members of the androstane and pregnane series” (priority 1991, dated 1993).

As a reminder, the inhibition is the change of the read-out against control, counted positive when it falls.

The target of one assay is T1, estrogen receptor (Bos taurus, UniProt P49884).
T1 construct: from tissue; host or cells: bovine uterus cytosol
T1 sequence (P49884 1-596): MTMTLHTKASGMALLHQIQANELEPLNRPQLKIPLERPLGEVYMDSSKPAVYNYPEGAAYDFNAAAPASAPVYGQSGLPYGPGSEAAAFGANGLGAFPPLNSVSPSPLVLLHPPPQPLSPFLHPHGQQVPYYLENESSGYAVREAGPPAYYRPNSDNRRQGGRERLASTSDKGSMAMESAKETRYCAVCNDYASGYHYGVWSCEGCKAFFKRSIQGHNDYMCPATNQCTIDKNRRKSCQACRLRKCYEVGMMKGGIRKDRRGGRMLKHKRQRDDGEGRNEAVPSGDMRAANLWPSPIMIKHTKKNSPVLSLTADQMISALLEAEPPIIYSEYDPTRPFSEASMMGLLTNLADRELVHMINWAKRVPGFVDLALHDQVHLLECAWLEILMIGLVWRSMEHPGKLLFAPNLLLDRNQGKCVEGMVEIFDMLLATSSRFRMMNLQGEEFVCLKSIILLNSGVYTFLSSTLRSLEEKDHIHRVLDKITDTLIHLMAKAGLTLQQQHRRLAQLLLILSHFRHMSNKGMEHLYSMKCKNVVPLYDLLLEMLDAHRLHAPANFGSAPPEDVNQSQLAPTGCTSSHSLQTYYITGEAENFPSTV
Description: Inhibition of 3H-estradiol binding to bovine uteral estrogen receptors. To be noted: read-out: % of inhibition of 3H-estradiol binding, B, competitor 10^-6 M; 0.25 nM 3H-estradiol. As for the experimental part:
The hormonal activity of drugs described herein was further studied through testing their potential estrogenic, progestinic, mineralocorticoid and glucocorticoid activities. These activities were analyzed by monitoring the ability of the drugs to inhibit binding of the steroid hormones to their respective hormone receptors.

Assay [1] concerns GABA receptor complex (36Cl uptake, cerebral cortical synaptoneurosomes). Description: GABA-stimulated 36Cl uptake in rat cerebral cortical synaptoneurosomes. The class given is biochemical, rat (male Sprague-Dawley).

Turning to `C[C@]12CC[C@@H](O)C[C@@H]1CC[C@@H]1[C@@H]2CC[C@]2(C)[C@@H](C(=O)CO)CC[C@@H]12` [Example 5α-THDOC, 3α,21-dihydroxy-5α-pregnan-20-one], the inhibition at 1 µM on estrogen receptor came to 4%.

With `CC(=O)[C@H]1CC[C@H]2[C@@H]3CC[C@H]4C[C@H](O)CC[C@]4(C)[C@H]3CC[C@]12C` [Example 3α-OH-DHP, 3α-hydroxy-5α-pregnan-20-one], the “enhancement of GABA-stimulated 36Cl uptake above GABA alone” value in assay [1] (3α-OH-DHP 500 nM alone, GABA 25 μM, FIG. 4) is listed as 60%. In addition, the “% enhancement of basal 36Cl uptake” value in assay [1] (GABA (25 μM) + 3α-OH-DHP (500 nM)) was 194 ± 8%. Moreover, the “effect on basal 36Cl uptake” value in assay [1] (steroid alone, no GABA) is given as “no effect”.
